Several values for one entry are separate records, joined by “and”; a condition that tells them apart may be missing. Equal values may be shown once. Read-outs that look alike come from different tables or passages of the source.

One series deals with bee venom PLA2 (Apis mellifera, UniProt P00630). Nature of the series: biochemical.
Series [1] is described as follows: Quantitative ORAC assay (fluorescein/AAPH). The note with it: for fold less active than Trolox: ORAC assay, compared with Trolox; for ORAC FL relative ORAC value: fluorescein (FL) + AAPH, n = 3, Trolox = 1; for concentration displaying FL decay curve similar to Trolox: fluorescein fluorescence decay induced by AAPH, Figure 3.
Another series concerns KB cells. Description: Cytotoxicity assay (MTS) on KB cells.

Chain of bee venom PLA2 (P00630 34-167 limits assumed): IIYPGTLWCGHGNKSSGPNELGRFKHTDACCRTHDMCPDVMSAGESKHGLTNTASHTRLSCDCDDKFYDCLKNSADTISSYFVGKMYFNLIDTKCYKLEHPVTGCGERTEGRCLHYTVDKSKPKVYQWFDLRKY
Protocol for KB cells: The human KB cell line was obtained from ECACC (Salisbury, UK) and grown in D-MEM medium supplemented with 10% fetal calf serum (Invitrogen), in the presence of penicillin, streptomycin and fungizone in a 75 cm^2 flask under 5% CO2. Cells were plated in 96-well tissue culture microplates at a density of 650 cells/well in 200 μL medium and treated 24 hrs later with compounds dissolved in DMSO using a Biomek 3000 automate (Beckman-Coulter). Controls received the same volume of DMSO (1% final volume).

Take `NC(=O)C(=O)c1c[nH]c2ccccc12` [Compound 1, (1H-Indol-3-yl)oxoacetamide]: the IC50 against bee venom PLA2 amounted to 1170 ± 50 µM.

`COC(=O)C(=O)c1c[nH]c2ccccc12` [Compound 2, (1H-Indol-3-yl)oxoacetic acid methyl ester]: the IC50 at bee venom PLA2 (n = 2, read-out: PLA2 IC50) was determined as 1110 ± 330 µM.

In the case of `O=Cc1c[nH]c2cc(Br)ccc12` [Compound 3, 6-Bromoindole-3-carbaldehyde], the IC50 at bee venom PLA2 (n = 2, read-out: PLA2 IC50) was 1270 ± 60 µM.

As for `C[C@H]1CC[C@H]2C(C)(C)CCC[C@]23Oc2ccc(O)cc2C[C@]13C` [Compound 4, Aureol], the IC50 on bee venom PLA2 (n = 2, read-out: PLA2 IC50) stood at 460 ± 20 µM. For the same compound, in series [1], the “fold less active than Trolox” value amounted to 3 fold; the “ORAC FL relative ORAC value” is 0.29 relative Trolox equivalent and 0.29 ± 0.03 relative Trolox equivalent; the “concentration displaying FL decay curve similar to Trolox” value worked out at 15.5 µM. The IC50 in the series on KB cells (Homo sapiens, KB, 72 h, read-out: KB cells IC50 (50% inhibition of cell proliferation)) is 5 µM.

On to `NCCc1c[nH]c2cc(Br)c(Br)cc12` [Compound 5, 5,6-Dibromotryptamine], for which, on bee venom PLA2 (n = 2, read-out: PLA2 IC50), the IC50 turned out to be 620 ± 10 µM.

On to `CNCCc1c[nH]c2cc(Br)c(Br)cc12` [Compound 6, N-Methyl-5,6-dibromotryptamine], for which the IC50 on bee venom PLA2 (n = 2, read-out: PLA2 IC50) is 330 ± 30 µM.

Regarding `CN(C)CCc1c[nH]c2cc(Br)c(Br)cc12` [Compound 7, N,N-Dimethyl-5,6-dibromotryptamine], at bee venom PLA2 (n = 2, read-out: PLA2 IC50), the IC50 stood at 770 ± 50 µM. The “ORAC FL relative ORAC value” in series [1] is 0.06 ± 0.01 relative Trolox equivalent.

With `CN[C@@H](Cc1c[nH]c2cc(Br)c(Br)cc12)C(=O)O` [Compound 8, 5,6-Dibromoabrine], at bee venom PLA2 (n = 2, read-out: PLA2 IC50), the IC50 stood at 300 ± 10 µM. Also, the “ORAC FL relative ORAC value” in series [1] was 0.07 ± 0.01 relative Trolox equivalent.

`C[N+](C)(C)[C@@H](Cc1c[nH]c2cc(Br)c(Br)cc12)C(=O)[O-]` [Compound 9, 5,6-Dibromo-L-hypaphorine]: the IC50 on bee venom PLA2 (n = 2, read-out: PLA2 IC50) came out at 200 ± 10 µM. Moreover, in series [1], the “fold less active than Trolox” value worked out at 4 fold; the “ORAC FL relative ORAC value” is 0.22 relative Trolox equivalent and 0.22 ± 0.04 relative Trolox equivalent; the “concentration displaying FL decay curve similar to Trolox” value was 24.2 µM. Also, in the series with KB cells (at 10^−4 M, human KB cell line), the “cytotoxicity towards KB cells” value is on record as “did not show any cytotoxic activity”.

Consider `Cc1c(C)c2c(c(C)c1O)CCC(C)(C(=O)O)O2` (centres unmarked) [Trolox, reference compound], for which the “ORAC FL relative ORAC value” in series [1] was 1 relative Trolox equivalent.

The record behind these values is article PMC3111189, “Bioactive Indole Derivatives from the South Pacific Marine Sponges Rhopaloeides odorabile and Hyrtios sp” (Marine Drugs, 2011).
